Laboratory results published in patent US20250289789A1, “REVERSIBLE LYSINE COVALENT MODIFIERS OF CDK2 AND USES THEREOF” (Terremoto Biosciences, Inc., priority 2023, published 2025).
Where two headings read alike, the source gives them in different places.

Assays:
Type in all cases: cell-based
[1] = target: T1, CDK2-NanoLuc fusion with CCNE1 in 293T or 293 cells (Homo sapiens, UniProt P24941); experiment: NanoBRET Target Engagement (TE) Intracellular Kinase Assay, CDK2/CCNE1; conditions: 2-hour incubation
T1 construct: host or cells: 293T (ATCC CRL-3216) or 293 (ATCC CRL-1573)

[2] = test system: Phospho-Rb Ser807/811 in OVCAR3 cells; experiment: OVCAR3 Phospho-Rb Ser807/811 HTRF assay; conditions: Homo sapiens, OVCAR3 cells, Phospho-Rb Ser807/811 HTRF, 1 hour incubation, read-out: pRb-OVCAR3 IC50
Procedure: Cells were trypsinized and resuspended in 1 mM hydroxyurea (Sigma; H8627), 90% RPMI and 10% fetal bovine serum. […] Dose response curve normalized to DMSO control was plotted using four-parameter logistic model for IC50 calculation.

[3] = target: T2, CDK4-NanoLuc fusion with CCND1 in 293T or 293 cells (Homo sapiens, UniProt P11802); experiment: NanoBRET Target Engagement (TE) Intracellular Kinase Assay, CDK4/CCND1; conditions: 2-hour incubation
T2 construct: host or cells: 293T (ATCC CRL-3216) or 293 (ATCC CRL-1573)
T2 sequence (P11802 whole entry, the tested form may be a part): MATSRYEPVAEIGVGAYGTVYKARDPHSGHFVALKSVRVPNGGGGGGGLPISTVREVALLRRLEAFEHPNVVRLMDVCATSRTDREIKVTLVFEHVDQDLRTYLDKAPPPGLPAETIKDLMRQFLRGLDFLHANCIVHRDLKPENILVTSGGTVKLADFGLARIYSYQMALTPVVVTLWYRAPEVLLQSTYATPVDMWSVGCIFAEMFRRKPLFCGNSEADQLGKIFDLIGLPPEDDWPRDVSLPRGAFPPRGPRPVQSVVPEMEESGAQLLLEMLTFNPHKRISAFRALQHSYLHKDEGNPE
T2 sequence (P24385 whole entry partner, the tested form may be a part): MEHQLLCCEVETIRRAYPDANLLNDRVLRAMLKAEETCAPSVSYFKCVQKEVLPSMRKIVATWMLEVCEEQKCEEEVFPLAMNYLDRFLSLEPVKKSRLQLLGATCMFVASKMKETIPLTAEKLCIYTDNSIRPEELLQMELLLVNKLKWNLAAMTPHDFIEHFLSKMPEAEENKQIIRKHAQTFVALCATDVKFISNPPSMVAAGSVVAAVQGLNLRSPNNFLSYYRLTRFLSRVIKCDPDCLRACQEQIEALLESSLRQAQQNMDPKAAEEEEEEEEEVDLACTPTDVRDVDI

[4] = target: T3, CDK1-NanoLuc fusion with CCNB1 in 293T or 293 cells (Homo sapiens, UniProt P06493); experiment: NanoBRET Target Engagement (TE) Intracellular Kinase Assay, CDK1/CCNB1; conditions: 2-hour incubation
T3 construct: host or cells: 293T (ATCC CRL-3216) or 293 (ATCC CRL-1573)
T3 sequence (P06493 whole entry, the tested form may be a part): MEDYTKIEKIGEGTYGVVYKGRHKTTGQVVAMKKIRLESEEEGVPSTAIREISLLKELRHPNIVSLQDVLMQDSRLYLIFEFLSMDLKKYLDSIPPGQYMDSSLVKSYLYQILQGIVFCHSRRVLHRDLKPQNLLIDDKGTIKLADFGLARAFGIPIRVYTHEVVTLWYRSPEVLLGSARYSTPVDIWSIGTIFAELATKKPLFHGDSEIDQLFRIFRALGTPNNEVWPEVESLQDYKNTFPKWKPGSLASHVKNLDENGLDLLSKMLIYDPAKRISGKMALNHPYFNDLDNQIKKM
T3 sequence (P14635 whole entry partner, the tested form may be a part): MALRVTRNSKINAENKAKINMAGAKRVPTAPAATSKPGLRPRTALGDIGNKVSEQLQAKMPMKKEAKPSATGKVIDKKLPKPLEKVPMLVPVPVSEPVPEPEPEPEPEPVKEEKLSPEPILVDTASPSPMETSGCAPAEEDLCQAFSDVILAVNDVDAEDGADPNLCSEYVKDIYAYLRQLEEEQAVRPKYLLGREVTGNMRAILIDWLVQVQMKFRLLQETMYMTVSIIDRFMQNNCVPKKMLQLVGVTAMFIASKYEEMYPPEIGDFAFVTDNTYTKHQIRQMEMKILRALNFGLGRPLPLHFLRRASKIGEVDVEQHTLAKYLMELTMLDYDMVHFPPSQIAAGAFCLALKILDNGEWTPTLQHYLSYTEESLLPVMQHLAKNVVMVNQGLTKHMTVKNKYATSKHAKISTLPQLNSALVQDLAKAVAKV
Summary of the method: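 IC50 derived by four-parameter logistic fit of DMSO-normalized acceptor/donor (610/450 nm) BRET ratio. Compound and Tracer K-10 were applied together for 2 h at 37° C to 293 or 293T cells transfected 24 h earlier with CDK1-NanoLuc fusion and cyclin B1.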

[5] = NanoBRET TE intracellular kinase assay, read-out: NanoBRET-CDK2/E1 IC50
[6] = NanoBRET TE intracellular kinase assay, read-out: NanoBRET-CDK4/D1 IC50
[7] = NanoBRET TE intracellular kinase assay, read-out: NanoBRET-CDK1/B1 IC50

Row | SMILES | IC50 [1, 5] | IC50 ([2]; OVCAR-3, 1 h) | IC50 [3, 6] | IC50 [4, 7] | IC50 ([1]; NanoBRET-CDK2/E1 IC50, NanoBRET TE intracellular kinase assay) | IC50 ([2]; OVCAR-3) | IC50 ([3]; NanoBRET-CDK4/D1 IC50, NanoBRET TE intracellular kinase assay) | IC50 ([4]; NanoBRET-CDK1/B1 IC50, NanoBRET TE intracellular kinase assay)
1 | CC(C)NC(=O)O[C@@H]1CC[C@H](c2cc(NC(=O)[C@H]3C[C@H](c4cccc(O)c4C=O)C3)n[nH]2)C1 [Compound 107, (1R,3S)-3-(3-((1r,3S)-3-(2-formyl-3-hydroxyphenyl)cyclobutane-1-carboxamido)-1H-pyrazol-5-yl)cyclopentyl isopropylcarbamate] | 4.4 nM | 59.6 nM | 224 nM | 12 nM | – | – | – | –
2 | COc1cc(OC)c(C=O)c(OCC(=O)Nc2cc([C@H]3C[C@@H](OC(=O)N4C5COCC4C5)C3)[nH]n2)c1 [Compound 108, (1s,3s)-3-(3-(2-(2-formyl-3,5-dimethoxyphenoxy)acetamido)-1H-pyrazol-5-yl)cyclobutyl 3-oxa-6-azabicyclo[3.1.1]heptane-6-carboxylate] | 3.65 nM | 44.4 nM | > 10000 nM | 15.2 nM | – | – | – | –
3 | COc1cc(OC)c(C=O)c(OCC(=O)Nc2cc([C@H]3C[C@@H](OC(=O)N4CCC4(C)C)C3)[nH]n2)c1 [Compound 109, (1s,3s)-3-(3-(2-(2-formyl-3,5-dimethoxyphenoxy)acetamido)-1H-pyrazol-5-yl)cyclobutyl 2,2-dimethylazetidine-1-carboxylate] | 1.85 nM | 17.6 nM | 4370 nM | 4.14 nM | – | – | – | –
4 | CCCNC(=O)O[C@H]1C[C@@H](c2cc(NC(=O)COc3cc(OC)cc(OC)c3C=O)n[nH]2)C1 [Compound 110, (1s,3s)-3-(3-(2-(2-formyl-3,5-dimethoxyphenoxy)acetamido)-1H-pyrazol-5-yl)cyclobutyl propylcarbamate] | 2.9 nM | 27.7 nM | 5360 nM | 7.64 nM | – | – | – | –
5 | COc1cc(O)c(C=O)c(OCC(=O)Nc2cc([C@H]3C[C@@H](OC(=O)N4C5COCC4C5)C3)[nH]n2)c1 [Compound 111, (1s,3s)-3-(3-(2-(2-formyl-3-hydroxy-5-methoxyphenoxy)acetamido)-1H-pyrazol-5-yl)cyclobutyl 3-oxa-6-azabicyclo[3.1.1]heptane-6-carboxylate] | 5.45 nM | 79.8 nM | > 10000 nM | 21 nM | – | – | – | –
6 | COc1cc(O)c(C=O)c(OCC(=O)Nc2cc([C@H]3C[C@@H](OC(=O)N4CCCC4)C3)[nH]n2)c1 [Compound 112, (1s,3s)-3-(3-(2-(2-formyl-3-hydroxy-5-methoxyphenoxy)acetamido)-1H-pyrazol-5-yl)cyclobutyl pyrrolidine-1-carboxylate] | 4.69 nM | 149 nM | > 10000 nM | 36 nM | – | – | – | –
7 | COc1cc(O)c(C=O)c(OCC(=O)Nc2cc([C@H]3C[C@@H](OC(=O)NC(C)C)C3)[nH]n2)c1 [Compound 113, (1s,3s)-3-(3-(2-(2-formyl-3-hydroxy-5-methoxyphenoxy)acetamido)-1H-pyrazol-5-yl)cyclobutyl isopropylcarbamate] | 4.13 nM | 61.6 nM | > 10000 nM | 11.4 nM | – | – | – | –
8 | CC(C)NC(=O)O[C@H]1C[C@@H](c2cc(NC(=O)COc3cccc(O)c3C=O)n[nH]2)C1 [Compound 114, (1s,3s)-3-(3-(2-(2-formyl-3-hydroxyphenoxy)acetamido)-1H-pyrazol-5-yl)cyclobutyl isopropylcarbamate] | 4.44 nM | 121 nM | > 10000 nM | 26.7 nM | – | – | – | –
9 | COc1cc(O)c(C=O)c(OCC(=O)Nc2cc([C@H]3CC[C@@H](OC(=O)NC(C)(C)C)C3)[nH]n2)c1 [Compound 128, (1R,3S)-3-(3-(2-(2-formyl-3-hydroxy-5-methoxyphenoxy)acetamido)-1H-pyrazol-5-yl)cyclopentyl tert-butylcarbamate] | 2.42 nM | 34.8 nM | 961 nM | 5.09 nM | – | – | – | –
10 | COc1cc(O)c(C=O)c(OCC(=O)Nc2cc([C@H]3CC[C@@H](OC(=O)N[C@H]4C[C@H]4F)C3)[nH]n2)c1 [Compound 132] | 3.39 nM | 22 nM | 2940 nM | 10.8 nM | – | – | – | –
11 | COc1cc(O)c(C=O)c(OCC(=O)Nc2cc([C@H]3CC[C@@H](OC(=O)N(C)N(C)C)C3)[nH]n2)c1 [Compound 172, (1R,3S)-3-(3-(2-(2-formyl-3-hydroxy-5-methoxyphenoxy)acetamido)-1H-pyrazol-5-yl)cyclopentyl 1,2,2-trimethylhydrazine-1-carboxylate] | 3.95 nM | 132 nM | > 10000 nM | 25.2 nM | – | – | – | –
12 | Cc1cc(O)c(C=O)c(OCC(=O)Nc2cc([C@H]3CC[C@@H](OC(=O)N4C5COCC4C5)C3)[nH]n2)c1 [Compound 199] | 3.76 nM | 58.5 nM | 6500 nM | 19.9 nM | – | – | – | –
13 | COC[C@H](C)NC(=O)O[C@@H]1CC[C@H](c2cc(NC(=O)COc3cc(OC)cc(O)c3C=O)n[nH]2)C1 [Compound 200] | 5.07 nM | 27.7 nM | 8410 nM | 8.83 nM | – | – | – | –
14 | COc1cc(O)c(C=O)c(OCC(=O)Nc2cc([C@H]3CC[C@@H](OC(=O)N4[C@H](C)COC[C@@H]4C)C3)[nH]n2)c1 [Compound 201] | 4.1 nM | 28.4 nM | 4680 nM | 12.9 nM | – | – | – | –
15 | COc1cc(O)c(C=O)c(OCC(=O)Nc2cc([C@H]3CC[C@@H](OC(=O)NC[C@@H](C)OC)C3)[nH]n2)c1 [Compound 202] | 5.67 nM | 70.5 nM | > 10000 nM | 41.6 nM | – | – | – | –
16 | COc1cc(O)c(C=O)c(OCC(=O)Nc2cc([C@H]3CC[C@@H](OC(=O)N4C[C@H]5C[C@@H]4CO5)C3)[nH]n2)c1 [Compound 203] | 7.37 nM | 60 nM | > 10000 nM | 18.6 nM | – | – | – | –
17 | COc1cc(O)c(C=O)c(OCC(=O)Nc2cc([C@H]3CC[C@@H](OC(=O)N4C[C@@H]5C[C@H]4CO5)C3)[nH]n2)c1 [Compound 204] | 4.54 nM | 34.6 nM | > 9510 nM | 12.2 nM | – | – | – | –
18 | COc1cc(O)c(C=O)c(OCC(=O)Nc2cc([C@H]3CC[C@@H](OC(=O)N4CCOCC45CC5)C3)[nH]n2)c1 [Compound 205] | 3.48 nM | 26.3 nM | 2040 nM | 4.59 nM | – | – | – | –
19 | COc1cc(O)c(C=O)c(OCC(=O)Nc2cc([C@H]3CC[C@@H](OC(=O)N4CCOC[C@H]4C)C3)[nH]n2)c1 [Compound 206] | 2.46 nM | 27.4 nM | > 10000 nM | 5.62 nM | – | – | – | –
20 | COc1cc(O)c(C=O)c(OCC(=O)Nc2cc([C@H]3CC[C@@H](OC(=O)N4C5CCC4COC5)C3)[nH]n2)c1 [Compound 207, (1R,3S)-3-{5-[2-(2-formyl-3-hydroxy-5-methoxyphenoxy)acetamido]-2H-pyrazol-3-yl}cyclopentyl 3-oxa-8-azabicyclo[3.2.1]octane-8-carboxylate] | – | – | – | – | 2.25 nM | 25.7 nM | 4130 nM | 6.54 nM
21 | COc1cc(O)c(C=O)c(OCC(=O)Nc2cc([C@H]3CC[C@@H](OC(=O)NCCC#N)C3)[nH]n2)c1 [Compound 208] | 9.87 nM | 41.8 nM | 7910 nM | 21.2 nM | – | – | – | –
22 | COCC1(NC(=O)O[C@@H]2CC[C@H](c3cc(NC(=O)COc4cc(OC)cc(O)c4C=O)n[nH]3)C2)CC1 [Compound 209] | 6.55 nM | 28.7 nM | 3870 nM | 5.94 nM | – | – | – | –
23 | COCCOCCNC(=O)O[C@@H]1CC[C@H](c2cc(NC(=O)COc3cc(OC)cc(O)c3C=O)n[nH]2)C1 [Compound 210] | 6.9 nM | 68.5 nM | > 10000 nM | 26.3 nM | – | – | – | –
24 | CCOc1cc(O)c(C=O)c(OCC(=O)Nc2cc([C@H]3CC[C@@H](OC(=O)N4CCC4(C)C)C3)[nH]n2)c1 [Compound 211, (1R,3S)-3-(3-(2-(5-ethoxy-2-formyl-3-hydroxyphenoxy)acetamido)-1H-pyrazol-5-yl)cyclopentyl 2,2-dimethylazetidine-1-carboxylate] | 2.68 nM | 34.5 nM | 2120 nM | 9.01 nM | – | – | – | –
25 | COc1cc(O)c(C=O)c(OCC(=O)Nc2cc([C@H]3CC[C@@H](OC(=O)N4[C@@H](C)COC[C@@H]4C)C3)[nH]n2)c1 [Compound 212] | 2.98 nM | 21.8 nM | 1070 nM | 6.31 nM | – | – | – | –
26 | COCCNC(=O)O[C@@H]1CC[C@H](c2cc(NC(=O)COc3cc(OC)cc(O)c3C=O)n[nH]2)C1 [Compound 213] | 4.72 nM | 35.6 nM | > 10000 nM | 30.1 nM | – | – | – | –
27 | COc1cc(OC)c2c(c1C=O)C[C@H](C(=O)Nc1cc([C@H]3C[C@@H](OC(=O)NC(C)C)C3)[nH]n1)C2 [Compound 214] | 56.8 nM | 375 nM | > 3460 nM | 155 nM | – | – | – | –
28 | COc1cc(O)c(C=O)c(OCC(=O)Nc2cc([C@H]3CC[C@@H](OC(=O)NC4(C#N)CC4)C3)[nH]n2)c1 [Compound 215] | 10.3 nM | 41.5 nM | > 6270 nM | 20.6 nM | – | – | – | –
